The values below come from paper PMC8808171, “Nonselective TRPC channel inhibition and suppression of aminoglycoside-induced premature termination codon readthrough by the small molecule AC1903” (The Journal of Biological Chemistry, 2022).

What is called IC50 is the concentration needed to halve the response being measured.

Assay [1] relates to TRPC3, TRPC4, TRPC5, TRPC6, TRPC4–C1, TRPC5–C1, endogenous TRPC1:C4 channels. Kind of assay: Summary of TRPC channel inhibition by AC1903. The settings on record: TRPC3, TRPC4, TRPC5, TRPC6, TRPC4–C1, TRPC5–C1, endogenous TRPC1:C4 in A498; read-out: IC50 values over multiple TRPC channels. Format: cell-based. The text has this: Nonsense mutations, which occur in ∼11% of patients with genetic disorders, introduce premature termination codons (PTCs) that lead to truncated proteins and promote nonsense-mediated mRNA decay. Aminoglycosides such as G418 permit PTC readthrough and so may be used to address this problem. However, their effects are variable between patients, making clinical use of aminoglycosides challenging. In this study, we tested whether TRPC nonselective cation channels contribute to the variable PTC readthrough effect of aminoglycosides by controlling their cellular uptake. […] In addition, our data strengthen the hypothesis that nonselective calcium channels are involved in aminoglycoside uptake.
[Ca^2+]i recordings were carried out using the ratiometric Ca^2+ dye Fura-2. 24 h prior to experiments, cells were plated either onto black, clear bottom poly-D-lysine-coated 96-well plates (HEK cells) or clear 96-well plates (A498 cells, CHO cells) at 50,000 cells per well (HEK cells) or 20,000 cells per well (A498 cells, CHO cells). For tetracycline-inducible HEK T-REx cells, protein expression was induced with tetracycline (TRPC channels: 1 μg ml^−1; hPiezo1: 100 ng ml^−1) at this point. […]

The test system of assay [2] is DMS-114 cells (TP53 R213X). The assay is described as follows: G418-induced PTC readthrough (full-length p53, capillary electrophoresis Western) in DMS-114 cells. Format: cell-based, human. The settings on record: for reduction of PTC readthrough compared with G418 alone: then 400 μg/ml G418 (Fig. 2A). The text has this: Variation in PTC readthrough response has been reported among individuals or cell lines with different nonsense mutations. Although this in part highlights the importance of the stop codon and its surrounding sequence as well as the physical location of the nonsense mutation in the mRNA sequence, understanding the contribution of other underlying genetic variations becomes more complicated. To rule out the effect of the sequence and position of nonsense mutations on response variation to potential PTC readthrough modulators, we studied two cancer cell lines, DMS-114 and TC-71, with identical homozygous nonsense mutation R213X in their TP53 gene. […] To find out whether the reduced response to G418 in TC-71 cells was associated with lower intracellular levels of G418, we measured concentrations of G418 in both cell lines at 0, 8 and 24 h post exposure to G418 (100 μg/ml).
Figure 1 Effect of TRPC inhibitors on G418 induced PTC readthrough. A, DMS-114 and TC-71 cell lines with homozygous TP53 nonsense mutation (R213X) were exposed to indicated concentrations of G418 for 24 h and p53 levels (full-length, FL-p53; truncated, TR-p53) were measured. B, 100 μg/ml G418 was added to DMS-114 and TC-71 cells and its total intracellular levels were measured at indicated time points (n = 5; data normalized to the highest response in each experiment; bars represent mean ± SD). C, DMS-114 cells were preincubated with indicated concentrations of TRPC inhibitors GFB-8438 (GFB), SAR7334 (SAR), SKF96365 (SKF), 2-APB, or AC1903 for 3 h followed by exposure to 400 μg/ml G418 for another 3 h. At 24 h cell lysates were prepared and p53 levels were measured. In panels A and C, protein levels were measured by automated capillary electrophoresis Western analysis (using vinculin and GAPDH as loading controls). Samples of cell lysates containing equal amounts of total protein were loaded in all capillaries and FL-p53 levels were expressed relative to the amount of FL-p53 in untreated cells. ∗ indicates statistically significant difference between samples according to two-way ANOVA (p < 0.05). PTC, premature termination codon; TRPC, transient receptor potential canonical.
To further investigate AC1903 as a suppressor of G418-induced PTC readthrough, we exposed DMS-114 and TC-71 cells to various concentrations of AC1903 for 3 h prior to exposure to 400 μg/ml G418 for another 3 h, followed by media replacement and incubation for another 18 h.
Figure 2 Effect of AC1903 on PTC readthrough and G418 trafficking.A and B, DMS-114 (A) or TC-71 (B) cells were pretreated with indicated concentrations of AC1903 for 3 h followed by exposure to 400 μg/ml G418. After 3 h medium was replenished and at 24 h cell lysates were prepared and p53 levels were measured. C and E, DMS-114 (C) or JEB01 (E) cells were either left untreated or pretreated with 150 μM AC1903 for 3 h followed by exposure to indicated concentrations of G418 for another 3 h. At 24 h cell lysates were prepared and p53 (C) or Collagen XVII (E) levels were measured. In panels A–C, protein levels were measured by automated capillary electrophoresis Western analysis (using vinculin as loading control). In panel E, protein levels were measured by Western blot (using beta-actin as loading control). Samples of cell lysates containing equal amounts of total protein were loaded in all capillaries and FL-p53 or Collagen XVII levels were expressed relative to their respective amounts in untreated cells. D, total intracellular levels of G418 were measured in the same lysates as in (C) (n = 5; data normalized to the highest response in each experiment; bars represent mean ± SD). F, total intracellular levels of G418 were measured in the same lysates as in (E) (n = 2; data normalized to the highest response in each experiment; bars represent mean ± SD). ∗ indicates statistically significant difference between samples according to one-way ANOVA (p < 0.05). PTC, premature termination codon. […]

For `c1ccc(Cn2c(NCc3ccco3)nc3ccccc32)cc1` [AC1903], the IC50 in assay [1] was 1.8 to 18 µM. Moreover, the “effect on G418-induced PTC readthrough” value in assay [2] (150 μM AC1903 3 h, then 400 μg/ml G418 (Fig. S12)) is “strongly reduced”. For the same molecule, the “reduction of PTC readthrough compared with G418 alone” value in assay [2] (AC1903 50 μM 3 h) turned out to be 20%; in assay [2] (AC1903 150 μM 3 h), 74%. For the same molecule, the “suppression of G418-induced PTC readthrough” value in assay [2] (AC1903 50 μM, 400 μg/ml G418 (Fig. 1C)) is roughly 27%. In addition, the “decrease in full-length p53” value in assay [2] (pretreatment 150 μM AC1903, increasing concentrations of G418 (Fig. 2C)) was roughly 70%. Further, in assay [2] (without G418), the “effect on PTC readthrough of AC1903 alone” value is listed as “did not affect PTC readthrough”.
